Earlier results, collected in the CATMoS acute toxicity set (Mansouri et al. 2021).
Where “and” joins values, the source holds several entries; their conditions need not be identical. Equal entries are not always repeated.

Test: rat acute oral toxicity
Settings: in vivo

| SMILES | LD50 |
| --- | --- |
| Cc1nc2ccccc2c(=O)n1-c1ccccc1C(=O)O | 1550 mg/kg |
| Cn1c(=N)oc2ccc(Cl)cc21 | 1000 mg/kg |
| S=C1NCCC(COc2ccccc2)O1 (stereo not given) | 2200 mg/kg |
| COc1ccccc1N1CCN(CCCc2ccc3c(c2)CCC(=O)N3)CC1 | 500 mg/kg |
| CC(=O)N(C)N=O | 20 mg/kg |
| CN(C)C1CCCCC1 | 348 mg/kg |
| CC1=C(C(=O)OCOC(=O)C(C)(C)C)N2C(=O)[C@@H](NC(=O)C(N)c3ccccc3)[C@H]2SC1 (stereo not given in full) | 4000 mg/kg |
| NC(=S)c1c(Cl)cccc1Cl | 757 mg/kg |
| Clc1ccc(OCOc2ccc(Cl)cc2)cc1 | 5800 mg/kg |
| CCCCCCCCCCCCCC[N+](C)(C)C | 3900 mg/kg |
| Cc1ccccc1O | 1860 mg/kg |
| CC(C)(C#N)/N=N/C(C)(C)C#N | 100 mg/kg |
| O=C(OCCOC(=O)C(Cl)(Cl)Cl)C(Cl)(Cl)Cl | 7000 mg/kg |
| CC(=O)OCCC(C)C | 16600 mg/kg |
| CC1(C)[C@H]2CC[C@](C)(O)[C@@H]1C2 | 2050 mg/kg |
| Oc1ccc(-c2ccccc2)cc1CN1CCCCC1 | 30 mg/kg |
| C#CCc1cc(COC(=O)C2C(C=C(C)C)C2(C)C)c(C)o1 (stereo not given) | 14000 mg/kg |
| O=C1c2ccccc2-c2c([N+](=O)[O-])cc3c4cc([N+](=O)[O-])c5c6c(ccc(c7ccc1c2c73)c64)C(=O)c1ccccc1-5 | 10000 mg/kg |
| CC(=O)CCc1ccc(O)cc1 | 1320 mg/kg |
| CSc1ccccc1 | 891 mg/kg |
| CC(C)=NNC(N)=S | 48.5 mg/kg |
| CCC(C(=O)c1ccc2[nH]c(=O)ccc2c1)N1CCN(c2cccc(Cl)c2)CC1 (stereo not given) | 500 mg/kg |
| O=C(c1ccccc1)c1cccc2c1CCC2C(=O)O (stereo not given) | 41.1 mg/kg |
| N#C/C(=C1\SCC(c2ccccc2Cl)S1)n1ccnc1 (stereo not given) | 652 mg/kg |
| CCCCC(CC)CNCC(CC)CCCC (stereo not given) | 1640 mg/kg |

| SMILES | LD50 |
| --- | --- |
| CC1COCC(C)N1C(=O)C[n+]1ccc(-c2cc[n+](CC(=O)N3C(C)COCC3C)cc2)cc1 (stereo not given) | 345 mg/kg |
| C=CCC1(C2C=CCC2)C(=O)N=C(O)NC1=O (stereo not given) | 205 mg/kg |
| Nc1cc(S(=O)(=O)O)cc2c1C(=O)C(=NNc1ccc(NN=C3C(=O)c4c(O)cc(S(=O)(=O)O)cc4C=C3S(=O)(=O)O)cc1)C(S(=O)(=O)O)=C2 | 12000 mg/kg |
| O=C(Nc1ccc(Br)cc1)c1cc(Br)ccc1O | 410 mg/kg |
| CC(C)(C)c1cc(CCC(=O)NCCN)cc(C(C)(C)C)c1O | 1560 mg/kg |
| COc1ccc(C(=C(C#N)CCC(=O)O)c2ccc(OC)cc2)cc1 | 337 mg/kg |
| C=CC(=O)OCC(C)O (stereo not given) | 250 mg/kg |
| CCCOCCN(C(=O)CCl)c1c(CC)cccc1CC | 2200 mg/kg |
| CCC(c1ccccc1)c1c(O)c2ccccc2oc1=O (stereo not given) | 200 mg/kg |
| CN(C)CCN(Cc1ccccc1)c1ccccn1 | 469 mg/kg |
| CN(C)CC/C=C1\c2ccccc2CSc2ccccc21 | 450 mg/kg |
| CC1CC2OC2CC1COC(=O)CCCCC(=O)OCC1CC2OC2CC1C (stereo not given) | 4290 mg/kg |
| CCOC(=O)CC(CC(=O)OCC)(OC(C)=O)C(=O)OCC | 7000 mg/kg |
| CCOC1CCCCC1O (stereo not given) | 804 mg/kg |
| CC(C)CNCC(C)C | 258 mg/kg |
| Cc1ccc(B2OCC3(CO2)COB(c2ccc(C)cc2)OC3)cc1 | 1130 mg/kg |
| COC(C=Cc1ccccc1)OC | 3700 mg/kg |
| N#CCCNCCC#N | 2700 mg/kg |
| CC(N)(Cc1ccc(O)c(O)c1)C(=O)O (stereo not given) | 5710 mg/kg |
| CCOP(=O)(OCC)SC(C)(C)C | 127 mg/kg |
| Cc1cc(C)cc(OCC2CNC(=O)O2)c1 (stereo not given) | 775 mg/kg |
| CC=CC(=O)O | 1000 mg/kg |
| CC(C)=CCCC(C)=CCCC(=CCCC(C)=CCO)CO | 10900 mg/kg |
| CNC(=O)OCc1cccc(COC(=O)NC)n1 | 1230 mg/kg |
| O=C(O)/C=C\Cl | 320 mg/kg |

| SMILES | LD50 |
| --- | --- |
| CCCCCCOC(=O)Oc1ccccc1C(=O)O | 3450 mg/kg |
| CC1Cc2cc3c(cc2C(c2ccc(N)cc2)=NN1)OCO3 (stereo not given) | 350 mg/kg |
| CC1CCCC(C)N1CCCNc1n[nH]c2ccccc12 (stereo not given) | 700 mg/kg |
| CN(C)c1ccc(C=C2C(=O)N=C3c4ccccc4N=CN23)cc1 | 355 mg/kg |
| COC(=O)CC1CCCCC1 | 2500 mg/kg |
| O=[N+]([O-])c1cc(Cl)c(Cl)c(Cl)c1[N+](=O)[O-] | 425 mg/kg |
| O=NN(CCCC(F)(F)F)CCCC(F)(F)F | 750 mg/kg |
| O=C(NCCO)c1ccccc1O | 4300 mg/kg |
| CCCCCCCCCCCC[N+](CCO)(CCO)Cc1ccccc1 | 750 mg/kg |
| CC(=O)c1cc2c(cc1C)C(C)(C)C(C)C2C(C)C (stereo not given) | 2220 mg/kg |
| CC(C)(O)C(=O)c1ccc(OCCO)cc1 | 4080 mg/kg |
| CON(C(=O)c1cc(C)oc1C)C1CCCCC1 | 3780 mg/kg |
| O=C(C=Cc1ccccc1O)OC(=O)C=Cc1ccccc1O | 1510 mg/kg |
| Cc1cc(=O)[nH]c(=S)[nH]1 | 1500 mg/kg |
| CCC(CC)COCCC(=O)O | 3730 mg/kg |
| CCCOc1cc(C=CC(=S)OCC)ccc1OC | 970 mg/kg |
| C=CC(=O)OCCOC(=O)c1ccc(C(=O)O)cc1C(=O)O | 3190 mg/kg |
| COC(=S)SSC(=S)OC | 240 mg/kg |
| CCOP(=S)(OCC)Oc1ccc2c3c(c(=O)oc2c1)CCCC3 | 67 mg/kg |
| O=C(C=CC(=O)OCCCl)OCCCl | 71 mg/kg |
| CC(C)NCC(O)COc1cccc2cc(C(C)O)oc12 (stereo not given) | 2130 mg/kg |
| N#CC(CCN1CCC(C(N)=O)(N2CCCCC2)CC1)(c1ccccc1)c1ccccc1 | 320 mg/kg |
| CCCCN(CCCC)CCCN | 820 mg/kg |
| O=C1c2ccccc2CCC1CNCCc1ccc(O)cc1 (stereo not given) | 650 mg/kg |
| O=C(NP(=O)(N1CC1)N1CC1)c1ccccc1 | 50 mg/kg |

| SMILES | LD50 |
| --- | --- |
| CCC(C)NC(=S)C(=S)NC(C)CC (stereo not given) | 6 mg/kg |
| CCCSP(=O)(OCC)Oc1ccccc1 (stereo not given) | 295 mg/kg |
| O=C(Cl)c1cc(Cl)cc(Cl)c1 | 794 mg/kg |
| CCCc1ccccc1 | 6040 mg/kg |
| CC(Cc1ccccc1)NCCN1CON=C1c1ccccc1 (stereo not given) | 649 mg/kg |
| NS(=O)(=O)CCl | 6050 mg/kg |
| O=C(CCCN1CC=C(n2c(=O)[nH]c3ccccc32)CC1)c1ccc(F)cc1 | 750 mg/kg |
| CC(=O)O[C@H]1C[C@H](O[C@H]2[C@@H](OC=O)C[C@H](O[C@H]3[C@@H](OC=O)C[C@H](O[C@H]4CC[C@@]5(C)[C@H](CC[C@@H]6[C@@H]5CC[C@]5(C)[C@@H](C7=CC(=O)OC7)[C@@H](OC=O)C[C@]65O)C4)O[C@@H]3C)O[C@@H]2C)O[C@H](C)[C@H]1OC=O | 39 mg/kg |
| CC(Cc1ccc2c(c1)OCO2)NCC(O)c1ccc(O)c(O)c1 (stereo not given) | 865 mg/kg |
| CCCCCCOCCOC(=O)CCC(=O)OCCOCCCCCC | 4280 mg/kg |
| Cc1[nH]c2ccccc2c1C=CC1=[N+](C)c2ccccc2C1(C)C | 2450 mg/kg |
| O=NN(c1ccccc1)c1ccccc1 | 1820 mg/kg |
| NC(=O)NC(=O)Cc1ccccc1 | 1600 mg/kg |
| CCN(CCNS(C)(=O)=O)c1ccc(N)c(C)c1 | 400 mg/kg |
| C=CC(=O)NCOCCCC | 1030 mg/kg |
| C=CCOc1ccc([C@H]2c3ccc(OC)cc3OC(C)(C)[C@@H]2c2ccccc2)cc1 | 500 mg/kg |
| O=C1C=CC(=O)c2ccccc21 | 190 mg/kg |
| COCCc1ccccc1 | 4100 mg/kg |
| O=S(=O)(O)C(F)(F)F | 1610 mg/kg |
| Clc1nc(Cl)nc(Nc2ccccc2Cl)n1 | 2700 mg/kg |
| O=C1NC(=O)C(c2ccccc2)(c2ccccc2)N1 | 1530 mg/kg |
| CCCCOC(=O)CC#N | 4180 mg/kg |
| Cc1c(N)nc(C)c2c1[nH]c1ccccc12 | 100 mg/kg |
| Cc1cccc(C)c1N(C(=O)CCl)C1CCOC1=O (stereo not given) | 2600 mg/kg |
| CCOc1ccccc1OCC(O)CNCCNCC(O)COc1ccccc1OCC (stereo not given) | 560 mg/kg |

| SMILES | LD50 |
| --- | --- |
| Cc1ccccc1C(O)(c1ccccc1)C(C)CN(C)C (stereo not given) | 185 mg/kg |
| O=C(O)C(=O)C(O)=C(O)O | 6000 mg/kg |
| Cc1ccc([N+](=O)[O-])cc1N | 574 mg/kg |
| CCCCC(CC)COC(C)=O (stereo not given) | 3000 mg/kg |
| O=C(c1ccc(Cl)cc1)n1cc(Cc2nn[nH]n2)c2ccccc21 | 1200 mg/kg |
| Cc1onc2c(=O)n(C)nc(-c3ccccc3)c12 | 1000 mg/kg |
| COP(=O)(OC1CCCCC1)SC (stereo not given) | 240 mg/kg |
| CCc1oc2ccccc2c1C(=O)c1cc(Br)c(O)c(Br)c1 | 248 mg/kg |
| CCOC(=S)C=Cc1ccc(Cl)cc1 | 950 mg/kg |
| CC(SCC(=O)O)c1ccc2c(c1)Cc1ccccc1-2 (stereo not given) | 1900 mg/kg |
| CCOC(=O)N(C)N=O | 180 mg/kg |
| CC(=O)Oc1cc(C(C)C)c(OCCN(C)C)cc1C | 740 mg/kg |
| CNC(=O)Oc1ccc(C)c2c1OC(C)(C)C2 | 12 mg/kg |
| CC(=O)OCN(C)N=O | 130 mg/kg |
| O=C(O)C1CCc2cc(C3CCCCC3)c(O)cc21 (stereo not given) | 450 mg/kg |
| CCCCCc1ccccc1O | 700 mg/kg |
| O=C1C(Cl)C2(Cl)C3C(Cl)OCC3C1(Cl)C2(Cl)Cl (stereo not given) | 100 mg/kg |
| CC(C)(C#N)Nc1nc(Cl)nc(NC2CC2)n1 | 290 mg/kg |
| CCOP(N)(=O)SC (stereo not given) | 5 mg/kg |
| Clc1cnn(CCCCN2CCN(c3ncccn3)CC2)c1 | 374 mg/kg |
| ClC1=C(Cl)C2(Cl)C3C4OC(C5OC54)C3C1(Cl)C2(Cl)Cl (stereo not given) | 142 mg/kg |
| C#CCOc1cccc(OC(=O)NC)c1 | 150 mg/kg |
| Cc1cc(C)c(S(=O)(=O)O)c(C)c1Nc1ccc(Nc2c(C)cc(C)c(S(=O)(=O)O)c2C)c2c1C(=O)c1ccccc1C2=O | 3350 mg/kg |
| C1CS1 | 178 mg/kg |
| C=CC(=O)OC(C)COCC(C)OC(=O)C=C (stereo not given) | 4600 mg/kg |

| SMILES | LD50 |
| --- | --- |
| O=C1OCCC1N(C(=O)C1CC1)c1cccc(Cl)c1 (stereo not given) | 174 mg/kg |
| FC(F)(F)CO[C@@H]1CC[C@@](Cn2cncn2)(c2ccc(Cl)cc2Cl)O1 | 450 mg/kg |
| Nc1ccc(-c2ccc(-n3nc4ccc5c(S(=O)(=O)O)cc(S(=O)(=O)O)cc5c4n3)cc2)cc1 | 7210 mg/kg |
| NNC(=O)CSc1cc(Oc2ccccc2)ncn1 | 220 mg/kg |
| CCCCOC(=O)c1ccccc1C(=O)OCc1ccccc1 | 2330 mg/kg |
| CCOP(=O)(OCC)SCN1C(=O)c2ccccc2C1=O | 11 mg/kg |
| CC1(C)COC1=O | 1470 mg/kg |
| CCOP(=S)(OCC)SC(C(=O)OCCF)c1ccccc1 (stereo not given) | 5 mg/kg |
| COC(=O)C(c1ccccc1)C1CCCCN1 (stereo not given) | 367 mg/kg and 350 mg/kg |
| CC(CC1CCCCC1)NCCC(c1ccccc1)c1ccccc1 (stereo not given) | 1550 mg/kg |
| CCOP(=O)(OCC)Oc1ccc(S(C)(=O)=O)c(C)c1 | 8.13 mg/kg |
| O=C(Nc1ccc(O)cc1)c1ccccc1O | 6700 mg/kg |
| Clc1ccc2c(c1)C(c1ccccc1)=NCc1nncn1-2 | 2500 mg/kg |
| CC(C)C(=O)OCc1ccccc1 | 2850 mg/kg |
| CCCCC1OC(=O)c2ccccc21 (stereo not given) | 2450 mg/kg |
| CC(O)C(Cl)(Cl)Cl (stereo not given) | 1000 mg/kg |
| CNC(=O)Oc1cc(C(C)C)ccc1C | 250 mg/kg |
| Oc1ccc(Cl)cc1-c1ccccc1 | 3500 mg/kg |
| N#CC(=Cc1ccc(Cl)cc1Cl)C(=O)O | 50 mg/kg |
| CC(C)(C)NCC(O)COc1cc(Cl)ccc1Cl (stereo not given) | 1300 mg/kg |
